According to paper PMC7144940, “Principles of RNA and nucleotide discrimination by the RNA processing enzyme RppH” (Nucleic Acids Research, 2020):
“Also recorded” adds a separate entry of the source. Like-named read-outs stand apart in the source and are kept apart here.

Tests used:
Escherichia coli RppH [1] = biological target: T1, Escherichia coli RppH (Escherichia coli, UniProt P0A776); assay: Metal dependence of RppH reactivity (TLC); format: biochemical; parameters: RppHd (Δ161-176); Nterm-Ser0-Met1; decahistidine (N, cleaved yes); SUMO (N, cleaved yes); made in house; host or cells: E. coli BL21(DE3); details: 5 mM substrate, 5 μM RppHd
Description: Reactions were performed with 5 mM GTP and 5 μM RppHd, in a 20-μL solution containing 10 mM divalent cation salt (MgCl2, MnCl2, NiCl2, or CaCl2) and 50 mM buffer with different pH (HEPES-Na, pH 7.5; Tris-HCl, pH 8.0, 8.5, 9.0). Reactions were incubated at 37 °C for 1 h and quenched with 10 μL 150 mM EDTA. Samples were analyzed on PEI-cellulose plates in 0.3 M potassium phosphate buffer, pH 7.5, at room temperature. RNAs were visualized by UV254 shadowing.
Target sequence in this assay (P0A776 1-160): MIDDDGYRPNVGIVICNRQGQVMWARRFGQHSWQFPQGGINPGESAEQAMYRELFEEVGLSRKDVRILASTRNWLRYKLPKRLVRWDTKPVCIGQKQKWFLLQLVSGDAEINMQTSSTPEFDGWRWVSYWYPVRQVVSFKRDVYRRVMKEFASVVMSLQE

Escherichia coli RppH [2] = biological target: T1, Escherichia coli RppH; format: biochemical; parameters: 0.1 mM substrate and 1 μM full-length RppH in case of nucleotides; decahistidine (N, cleaved yes); SUMO (N, cleaved yes); made in house; host or cells: E. coli BL21(DE3); details: for initial reaction rate of hydrolysis by RppH: nucleotide substrate 0.1 mM, 1 μM full-length RppH, pH 7.5, 10 mM MgCl2, 37°C, linear regression, n = 2, error is SE
Description: (§1) RppH activity on pppAG and ppAG RNAs, NTPs, NDPs, and ppGpp was determined by kinetic analysis, as described in ref. ([6]). Each reaction mixture contained 0.1 mM substrate and 1 μM full-length RppH in case of nucleotides and 0.1 μM RppH in case of RNA, in a 50-μL solution containing 50 mM HEPES-NaOH, pH 7.5, 10 mM MgCl2 , 0.1% Triton X-100, at 37°C. Reactions were incubated for 0–20 min and quenched with 750 μl of 50 mM sodium acetate, pH 4.5. The quenched reaction samples were analyzed by anion-exchange chromatography on a 5 × 50 mm MonoQ column (GE Healthcare). The reaction products and remaining substrates were eluted with a 0–1.0 M NaCl gradient in 10 mM Tris-HCl, pH 7.5, detected at 260 nm, and the amount of each mono- or oligonucleotide was calculated by using the integration function in UNICORN software (GE Healthcare). The initial reaction rates were calculated based on the ratio between remaining substrate and reaction products using a linear fit model of GraphPad. Each assay was repeated at least twice.
Target sequence in this assay (P0A776 whole entry): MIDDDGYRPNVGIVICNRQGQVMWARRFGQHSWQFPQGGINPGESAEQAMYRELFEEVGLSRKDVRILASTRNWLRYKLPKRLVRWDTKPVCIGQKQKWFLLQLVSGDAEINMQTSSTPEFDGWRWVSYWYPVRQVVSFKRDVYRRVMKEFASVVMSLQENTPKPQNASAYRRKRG

Escherichia coli RppH [3] = biological target: T1, Escherichia coli RppH; assay: Competition experiments: inhibition of RNA hydrolysis by nucleotides; format: biochemical; parameters: 0.1 mM substrate and 1 μM full-length RppH in case of nucleotides; decahistidine (N, cleaved yes); SUMO (N, cleaved yes); made in house; host or cells: E. coli BL21(DE3)
Description: as §1
Target sequence in this assay (P0A776 whole entry): as above
Competition experiments were conducted using the same protocol as cleavage assays with the 0.1 mM substrate RNA concentration, the nucleotide concentration ranging between 0.1-5.0 mM, and 10 min incubation. The initial reaction rates were calculated based on the ratio between reaction products and remaining substrate using a linear fit model of GraphPad software. Because of peak overlap, inhibition of GTP hydrolysis was determined solely based on quantification of the reaction products. IC50 values were determined using an IC50 model of GraphPad.

Escherichia coli RppH [4] = biological target: T1, Escherichia coli RppH; format: biochemical; parameters: 0.1 mM substrate and 1 μM full-length RppH in case of nucleotides; decahistidine (N, cleaved yes); SUMO (N, cleaved yes); made in house; host or cells: E. coli BL21(DE3); details: for hydrolysis by RppH (TLC): 1 mM substrate, 5 μM RppH, 37°C, 1 h
Description: Reactions for thin layer chromatography (TLC) were performed with 1 mM nucleotide substrates and 5 μM of the full-length RppH, in a 10-μl solution containing 10 mM MgCl2 and 50 mM buffer with different pH. Buffers were: MES-NaOH, pH 6.0; Na-cacodylate-HCl, pH 6.5; MOPS-NaOH, pH 7.0; HEPES-NaOH, pH 7.5; Tris-HCl, pH 8.0, 8.5 and 9.0. Reactions were incubated at 37°C for 1 h and quenched with 5 μl of 150 mM ethylenediaminetetraacetic acid (EDTA). Samples were analyzed on PEI-cellulose plates (F-254, Selecto Scientific) in 0.3 M potassium phosphate buffer, pH 7.5, for adenosine triphosphate (ATP), adenosine diphosphate (ADP), GTP, GDP, pppAG (RNA), ppGpp and pppGpp, and pH 3.3 for CTP and CDP, UTP and UDP. RNAs were visualized by UV254 shadowing. The equimolar amount of wild-type E. coli DapF ([8]) was added to the reactions for testing RppH activity stimulation at pH 7.5. Inhibition of RppH activity was conducted using NaF (Sigma-Aldrich) at 1–10 mM. For TLC experiments, original colored images were converted to black-and-white images, and the levels of brightness were adjusted to enhance the contrast and better visualize reaction products.
Target sequence in this assay (P0A776 whole entry): as above

[5] = biological target: T2, DapFm (E. coli DapF with Y268A and R36A mutations) (Escherichia coli, UniProt P0A6K1 1-274, Y268A | R36A); assay: crystal structure; RppHt-DapFm complex formed by mixing DapFm and RppHt at a molar ratio of 1:1.2 (20 mM Tris-HCl pH 8.0, 500 mM NaCl, 1 mM DTT), purified on Superdex 200; crystals from 30% PEG400, 0.1 M CHES pH 9.2, 18°C; soaked with GTP, GDP or pppGpp with MgCl2 and NaF; details: both partners purified
T2 construct: extra serine left at the N-terminus of all proteins by the ULP1 cleavage of the His10-SUMO tags; DapF (diaminopimelate epimerase), Escherichia coli, mutated variant of the full-length protein with Y268A and R36A; source: E. coli BL21(DE3), purified (HisTrap FF, tag cleavage by ULP1, Superdex 200); not shown: decahistidine, N-terminal, cleaved; SUMO, N-terminal, cleaved
T2 sequence: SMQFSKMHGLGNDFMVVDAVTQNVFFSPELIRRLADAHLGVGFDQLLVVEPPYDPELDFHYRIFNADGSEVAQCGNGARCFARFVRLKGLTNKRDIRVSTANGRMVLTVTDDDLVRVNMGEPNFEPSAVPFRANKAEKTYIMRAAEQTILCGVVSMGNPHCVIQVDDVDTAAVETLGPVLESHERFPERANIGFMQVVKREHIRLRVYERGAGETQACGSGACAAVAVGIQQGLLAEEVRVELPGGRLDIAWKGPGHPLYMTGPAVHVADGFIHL

[6] = longer incubation, pH 7.5, 1 μM RppH

Molecule: Nc1nc2c(ncn2[C@@H]2O[C@H](COP(=O)(O)OP(=O)(O)OP(=O)(O)O)[C@@H](O)[C@H]2O)c(=O)[nH]1 [GTP, guanosine triphosphate]
- hydrolysis by RppH in the presence of Mg2+ (Escherichia coli RppH [1]; 10 mM MgCl2, pH 7.5-9.0, 1 h): support hydrolysis most; also recorded: most efficiently
- hydrolysis by RppH in the presence of Mn2+ (Escherichia coli RppH [1]; 10 mM MnCl2, pH 7.5-9.0, 1 h): very low efficiency; also recorded: some activity
- hydrolysis by RppH in the presence of Ni2+ or Ca2+ (Escherichia coli RppH [1]; 10 mM NiCl2 or CaCl2, pH 7.5-9.0, 1 h): do not support hydrolysis; also recorded: no activity
- undigested substrate remaining at plateau (Escherichia coli RppH [2]; [6]): ~70%
- initial reaction rate of hydrolysis by RppH (Escherichia coli RppH [2]): 3.1 ± 0.13 µM/min
- IC50 (Escherichia coli RppH [3]): ~4.1 mM
- IC50 (Escherichia coli RppH [3]; IC50, inhibition of RppH reactivity with pppAG RNA, 0.1 mM pppAG RNA, nucleotide 0.1-5.0 mM, 10 mM Mg2+, pH 7.5, 10 min, n = 2, mean ± SE): 1.58 mM
- IC50 (Escherichia coli RppH [3]; IC50, range over pppAG and ppAG RNA substrates, pppAG and ppAG RNA): 1.6 to 4.1 mM
- IC50 (Escherichia coli RppH [3]; concentration to achieve 2-fold inhibition of the reaction of RppH with ppAG, ppAG RNA): ~4.1 mM
- IC50 (Escherichia coli RppH [3]; concentration to achieve 2-fold inhibition of the reaction of RppH with pppAG, pppAG RNA): ~1.6 mM
- hydrolysis by RppH (TLC) (Escherichia coli RppH [4]; pH 8.5 and 9.0): majority

Molecule: Nc1ccn([C@@H]2O[C@H](COP(=O)(O)OP(=O)(O)OP(=O)(O)O)[C@@H](O)[C@H]2O)c(=O)n1 [CTP, cytidine triphosphate]
- hydrolysis by RppH (TLC) (Escherichia coli RppH [4]; pH 8.5 and 9.0): majority

Molecule: Nc1nc2c(ncn2[C@@H]2O[C@H](COP(=O)(O)OP(=O)(O)O)[C@@H](OP(=O)(O)OP(=O)(O)O)[C@H]2O)c(=O)[nH]1 [ppGpp]
- initial reaction rate of hydrolysis by RppH (Escherichia coli RppH [2]): 1.20 ± 0.07 µM/min
- times less reactive than GDP (Escherichia coli RppH [2]; ratio of initial rates, pH 7.5): ~2.8
- hydrolysis by RppH (TLC) (Escherichia coli RppH [4]; pH 7.0): slow hydrolysis
- hydrolysis by RppH (TLC) (Escherichia coli RppH [4]; pH 7.5): About half
- hydrolysis by RppH (TLC) (Escherichia coli RppH [4]; pH 8.0): most

Molecule: Nc1nc2c(ncn2[C@@H]2O[C@H](COP(=O)(O)OP(=O)(O)O)[C@@H](O)[C@H]2O)c(=O)[nH]1 [GDP]
- conversion of substrate, without approaching a plateau (Escherichia coli RppH [2]; [6]): ~50%
- initial reaction rate of hydrolysis by RppH (Escherichia coli RppH [2]): 3.4 ± 0.07 µM/min
- IC50 (Escherichia coli RppH [3]; 0.1 mM ppAG RNA, nucleotide 0.1-5.0 mM, 10 mM Mg2+, pH 7.5, 10 min, n = 2, mean ± SE, GTP value estimated from a smooth curve, read-out: IC50, inhibition of RppH reactivity with ppAG RNA): ~0.059 mM
- IC50 (Escherichia coli RppH [3]; 0.1 mM pppAG RNA, nucleotide 0.1-5.0 mM, 10 mM Mg2+, pH 7.5, 10 min, n = 2, mean ± SE, read-out: IC50, inhibition of RppH reactivity with pppAG RNA): ~0.032 mM
- hydrolysis by RppH (TLC) (Escherichia coli RppH [4]; pH 8.0): almost all

Molecule: O=c1ccn([C@@H]2O[C@H](CO[P@@](=O)(O)O[P@@](=O)(O)OP(=O)(O)O)[C@@H](O)[C@H]2O)c(=O)[nH]1 (stereo in doubt) [UTP, uridine triphosphate]
- hydrolysis by RppH (TLC) (Escherichia coli RppH [4]; pH 8.5 and 9.0): majority

Molecule: Nc1nc2c(ncn2[C@@H]2O[C@H](COP(=O)(O)OP(=O)(O)OP(=O)(O)O)[C@@H](OP(=O)(O)OP(=O)(O)O)[C@H]2O)c(=O)[nH]1 [pppGpp]
- initial reaction rate of hydrolysis by RppH (Escherichia coli RppH [2]): 1.30 ± 0.10 µM/min
- times less reactive than GTP (Escherichia coli RppH [2]; ratio of initial rates, pH 7.5): ~2.4
- hydrolysis by RppH (TLC) (Escherichia coli RppH [4]; pH 7.5): very slow hydrolysis
- hydrolysis by RppH (TLC) (Escherichia coli RppH [4]; pH 8.0): moderate hydrolysis

Molecule: F [fluoride]
- effect on E. coli RppH activity (TLC) (Escherichia coli RppH [4]; NaF 1-10 mM, GTP and GDP at pH 8.0, pppGpp and ppGpp at pH 7.5): Inhibition

Molecule: Nc1ccn([C@@H]2O[C@H](COP(=O)(O)OP(=O)(O)O)[C@@H](O)[C@H]2O)c(=O)n1 [CDP]
- hydrolysis by RppH (TLC) (Escherichia coli RppH [4]; pH 8.0): almost all

Molecule: Nc1ncnc2c1ncn2[C@@H]1O[C@H](COP(=O)(O)OP(=O)(O)OP(=O)(O)O)[C@@H](O)[C@H]1O [ATP, adenosine triphosphate]
- undigested substrate remaining at plateau (Escherichia coli RppH [2]; [6]): ~70%
- initial reaction rate of hydrolysis by RppH (Escherichia coli RppH [2]): 4.2 ± 0.24 µM/min
- hydrolysis by RppH (TLC) (Escherichia coli RppH [4]; pH 8.5 and 9.0): all

Molecule: O=c1ccn([C@@H]2O[C@H](COP(=O)(O)OP(=O)(O)O)[C@@H](O)[C@H]2O)c(=O)[nH]1 [UDP]
- hydrolysis by RppH (TLC) (Escherichia coli RppH [4]; pH 8.0): almost all

Molecule: Nc1ncnc2c1ncn2[C@@H]1O[C@H](COP(=O)(O)OP(=O)(O)O)[C@@H](O)[C@H]1O [ADP, adenosine diphosphate]
- hydrolysis by RppH (TLC) (Escherichia coli RppH [4]; pH 8.0): all

B1: RppHt (E. coli RppH, Δ161-176 and Q159A/E160A) (enzyme, Escherichia coli)
chain: SMIDDDGYRPNVGIVICNRQGQVMWARRFGQHSWQFPQGGINPGESAEQAMYRELFEEVGLSRKDVRILASTRNWLRYKLPKRLVRWDTKPVCIGQKQKWFLLQLVSGDAEINMQTSSTPEFDGWRWVSYWYPVRQVVSFKRDVYRRVMKEFASVVMSLAA
notes: extra serine (Ser0) left at the N-terminus by the ULP1 cleavage of the His10-SUMO tags; RNA pyrophosphohydrolase RppH, Escherichia coli, C-terminally truncated variant Δ161-176 (Met1 to residue 160) with Q159A/E160A; printed as Nterm-Ser0-Met1…Ala159-Ala160-Cterm; source: E. coli BL21(DE3), purified (HisTrap FF, tag cleavage by ULP1, HiTrap SP, Superdex 75); not shown: decahistidine, N-terminal, …
- binding result [5]: binds
